# Measured values reported in ChEMBL document CHEMBL1133524 (J Med Chem, 2000).
# Activity calls are given as the source filed them. The rule behind the calls is not given here.
# How the values were obtained:
# [1] = tested on: SK-MEL-2; assay: Tested in vitro for cytotoxic activity against melanoma (SKMEL-2) cell line; format: functional, Homo sapiens
# [2] = tested on: A549; format: functional, Homo sapiens
# Description: Tested in vitro for cytotoxic activity against lung carcinoma (A-549) cell line
# [3] = tested on: MCF7; assay: Tested in vitro for cytotoxic activity against breast cancer (MCF-7) cell line; format: functional, Homo sapiens
# [4] = tested on: HCT-8; assay: Tested in vitro for cytotoxic activity against ileocecal carcinoma (HCT-8) cell line; format: functional, Homo sapiens
# [5] = tested on: 1A9; assay: Tested in vitro for cytotoxic activity against Human ovarian cancer (IA9) cell line; format: functional
# [6] = tested on: KB; assay: Tested in vitro for cytotoxic activity against P-glycoprotein-expressing epidermoid carcinoma of the nasopharynx(KB-VIN) cell line; format: functional, Homo sapiens
# [7] = tested on: HOS; assay: Tested in vitro for cytotoxic activity against bone(HOS) cell line; format: functional, Homo sapiens
# [8] = tested on: PC-3; assay: Tested in vitro for cytotoxic activity against prostate cancer (PC3) cell line; format: functional, Homo sapiens
# [9] = tested on: U-87 MG; assay: Tested in vitro for cytotoxic activity against glioblastoma (U-87-MG) cell line; format: functional, Homo sapiens, U-87MG ATCC
# [10] = tested on: KB; assay: Tested in vitro for cytotoxic activity against epidermoid carcinoma of the nasopharynx(KB) cell line; format: functional, Homo sapiens
# [11] = tested on: U-87 MG; assay: Tested in vitro for cytotoxic activity against glioblastoma (U-87-MG) cell line;NA means not active.; format: functional, cell-based; conditions: Homo sapiens; U-87MG ATCC
# [12] = tested on: U-87 MG; assay: Tested in vitro for cytotoxic activity against glioblastoma (U-87-MG) cell line; NA means Not active; format: functional, cell-based; conditions: Homo sapiens; U-87MG ATCC
# [13] = target: Tubulin (Bos taurus, UniProt Q6B856+Q862L2+Q862F3); assay: Inhibition of bovine tubulin polymerization; format: functional
# [14] = tested on: HCT-8; assay: Tested in vitro for cytotoxic activity against ileocecal carcinoma (HCT-8) cell line; NA means Not active; format: functional, cell-based; conditions: Homo sapiens
# [15] = tested on: KB; assay: Tested in vitro for cytotoxic activity against epidermoid carcinoma of the nasopharynx(KB) cell line; NA means Not active; format: functional, cell-based; conditions: Homo sapiens
# [16] = tested on: SK-MEL-2; assay: Tested in vitro for cytotoxic activity against melanoma (SKMEL-2) cell line; NA means Not active; format: functional, cell-based; conditions: Homo sapiens
# [17] = tested on: 1A9; assay: Tested in vitro for cytotoxic activity against Human ovarian cancer (IA9) cell line; NA means Not active; format: functional, cell-based
# [18] = tested on: HOS; assay: Tested in vitro for cytotoxic activity against bone(HOS) cell line; NA means Not active; format: functional, cell-based; conditions: Homo sapiens
# [19] = tested on: 1A9; assay: Tested in vitro for cytotoxic activity against human ovarian cancer (IA9)cell line; format: functional
# [20] = tested on: PC-3; assay: Tested in vitro for cytotoxic activity against prostate cancer (PC3) cell line; NA means Not active; format: functional, cell-based; conditions: Homo sapiens
# [21] = target: Tubulin (Bos taurus) (UniProt Q6B856+Q862L2+Q862F3); assay: Tested for inhibition of radioligand colchicine binding to bovine tubulin; format: protein assay; conditions: concentration not given here
IC50 [13],Structure (SMILES),ED50 [1],ED50 [2],ED50 [3],ED50 [4],ED50 [5],ED50 [6],ED50 [7],ED50 [8],ED50 [9],ED50 [10],ED50 [12],also measured
–,COc1cccc(-c2nc(O)c3cc(N4CCC(C)CC4)ccc3n2)c1,7.5 µg/mL,6 µg/mL,10 µg/mL,4 µg/mL,0.8 µg/mL,2.5 µg/mL,–,–,–,–,–,–
–,COc1cccc(-c2nc(O)c3cc(Cl)ccc3n2)c1,4.8 µg/mL,3.2 µg/mL,–,6 µg/mL,> 20 µg/mL,6.5 µg/mL,17 µg/mL,4.5 µg/mL,10 µg/mL,–,–,–
–,COc1ccc(-c2nc(O)c3ccccc3n2)cc1,> 20 µg/mL,> 20 µg/mL,> 20 µg/mL,> 20 µg/mL,> 20 µg/mL,> 20 µg/mL,> 20 µg/mL,> 20 µg/mL,–,> 20 µg/mL,–,ED50 [11]: inactive
> 40 µM,COc1ccccc1C1NC(=O)c2ccccc2N1 (centres undefined),< 20 µg/mL,> 20 µg/mL,> 20 µg/mL,> 20 µg/mL,–,10.2 µg/mL,> 20 µg/mL,> 20 µg/mL,–,> 20 µg/mL,inactive,Inhibition [10]: 32%; Inhibition [8]: 30%
–,COc1cccc(-c2nc(O)c3ccccc3n2)c1OC,–,> 20 µg/mL,20 µg/mL,–,–,> 20 µg/mL,–,20 µg/mL,–,–,inactive,ED50 [14]: inactive; ED50 [15]: inactive; ED50 [16]: inactive; ED50 [17]: inactive; ED50 [18]: inactive
–,COc1cccc(-c2nc(O)c3cc(N4CCOCC4)ccc3n2)c1,4.8 µg/mL,–,4.5 µg/mL,–,3.8 µg/mL,3.7 µg/mL,–,–,20 µg/mL,8.2 µg/mL,–,–
–,COc1cccc(-c2nc(O)c3cc(N4CCCCC4)ccc3n2)c1,4.5 µg/mL,2.8 µg/mL,8.5 µg/mL,4.3 µg/mL,0.9 µg/mL,0.6 µg/mL,–,10 µg/mL,9 µg/mL,10 µg/mL,–,–
1.5 µM,COc1cccc(C2NC(=O)c3cc(Cl)ccc3N2)c1 (centres undefined),< 2.5 µg/mL,0.6 µg/mL,16 µg/mL,0.48 µg/mL,0.27 µg/mL,0.42 µg/mL,20 µg/mL,2.5 µg/mL,> 20 µg/mL,0.95 µg/mL,–,–
0.32 µM,COc1cccc(-c2cc(O)c3cc(N4CCCC4)ccc3n2)c1,–,–,–,–,–,–,–,–,–,–,–,–
> 40 µM,COc1ccc(C2NC(=O)c3ccccc3N2)c(OC)c1 (centres undefined),> 20 µg/mL,> 20 µg/mL,> 20 µg/mL,> 20 µg/mL,–,7.6 µg/mL,> 20 µg/mL,> 20 µg/mL,–,> 20 µg/mL,inactive,Inhibition [10]: 43%; Inhibition [7]: 40%
> 40 µM,COc1ccc(C2NC(=O)c3ccccc3N2)cc1OC (centres undefined),> 20 µg/mL,> 20 µg/mL,20 µg/mL,> 20 µg/mL,–,16 µg/mL,> 20 µg/mL,> 20 µg/mL,–,> 20 µg/mL,inactive,Inhibition [10]: 28%; Inhibition [7]: 24%; Inhibition [8]: 30%
–,COc1ccccc1-c1nc(O)c2ccccc2n1,–,> 20 µg/mL,> 20 µg/mL,–,–,> 20 µg/mL,> 20 µg/mL,–,–,> 20 µg/mL,inactive,ED50 [19]: > 20 µg/mL; ED50 [14]: inactive; ED50 [16]: inactive; ED50 [20]: inactive
–,COc1cccc(-c2nc(O)c3cc(OC)ccc3n2)c1,> 20 µg/mL,–,8 µg/mL,–,3.4 µg/mL,3.5 µg/mL,> 20 µg/mL,> 20 µg/mL,> 20 µg/mL,–,–,–
–,COc1cccc(-c2nc(O)c3cc4c(cc3n2)OCO4)c1,> 20 µg/mL,> 20 µg/mL,> 20 µg/mL,–,> 20 µg/mL,> 20 µg/mL,> 20 µg/mL,> 20 µg/mL,–,> 20 µg/mL,inactive,ED50 [14]: inactive
–,COc1cccc(-c2nc(O)c3cc(N4CCCC4)ccc3n2)c1,0.09 µg/mL,0.5 µg/mL,0.22 µg/mL,0.06 µg/mL,0.09 µg/mL,0.1 µg/mL,7 µg/mL,15 µg/mL,–,0.23 µg/mL,–,inhibition [21]: 24%
> 40 µM,COc1cccc(C2NC(=O)c3ccccc3N2)c1OC (centres undefined),< 20 µg/mL,> 20 µg/mL,> 20 µg/mL,> 20 µg/mL,–,8.6 µg/mL,> 20 µg/mL,> 20 µg/mL,–,> 20 µg/mL,–,Inhibition [10]: 41%; ED50 [11]: inactive; Inhibition [8]: 20%
–,COc1ccc(OC)c(-c2nc(O)c3ccccc3n2)c1,> 20 µg/mL,> 20 µg/mL,> 20 µg/mL,> 20 µg/mL,> 20 µg/mL,> 20 µg/mL,> 20 µg/mL,> 20 µg/mL,–,> 20 µg/mL,inactive,–
32 µM,COc1ccc(OC)c(C2NC(=O)c3ccccc3N2)c1 (centres undefined),> 20 µg/mL,> 20 µg/mL,> 20 µg/mL,> 20 µg/mL,10 µg/mL,8.4 µg/mL,> 20 µg/mL,> 20 µg/mL,> 20 µg/mL,> 20 µg/mL,–,Inhibition [10]: 40%; Inhibition [7]: 40%
–,COc1ccc(-c2nc(O)c3ccccc3n2)cc1OC,> 20 µg/mL,> 20 µg/mL,> 20 µg/mL,> 20 µg/mL,> 20 µg/mL,> 20 µg/mL,> 20 µg/mL,> 20 µg/mL,–,> 20 µg/mL,inactive,–
–,COc1cc(OC)cc(-c2nc(O)c3ccccc3n2)c1,> 20 µg/mL,> 20 µg/mL,> 20 µg/mL,–,–,> 20 µg/mL,–,> 20 µg/mL,–,–,inactive,ED50 [14]: inactive; ED50 [15]: inactive; ED50 [17]: inactive; ED50 [18]: inactive
–,COc1cccc(-c2nc(O)c3cc(F)ccc3n2)c1,> 20 µg/mL,–,> 20 µg/mL,> 20 µg/mL,–,18 µg/mL,–,20 µg/mL,> 20 µg/mL,> 20 µg/mL,–,ED50 [17]: inactive; ED50 [18]: inactive
–,COc1cccc(-c2nc(O)c3ccccc3n2)c1,> 20 µg/mL,> 20 µg/mL,26 µg/mL,> 20 µg/mL,> 20 µg/mL,> 20 µg/mL,> 20 µg/mL,> 20 µg/mL,–,–,inactive,ED50 [15]: inactive
12 µM,COc1cc(OC)cc(C2NC(=O)c3ccccc3N2)c1 (centres undefined),4.4 µg/mL,5 µg/mL,> 20 µg/mL,3 µg/mL,–,1.6 µg/mL,> 20 µg/mL,> 20 µg/mL,> 20 µg/mL,4.7 µg/mL,–,–
> 40 µM,COc1ccc(C2NC(=O)c3ccccc3N2)cc1 (centres undefined),> 20 µg/mL,> 20 µg/mL,> 20 µg/mL,> 20 µg/mL,20 µg/mL,> 20 µg/mL,> 20 µg/mL,> 20 µg/mL,–,> 20 µg/mL,inactive,Inhibition [8]: 14%; Inhibition [6]: 39%
–,COc1cccc(-c2nc(O)c3cc(N(C)C)ccc3n2)c1,19 µg/mL,14 µg/mL,0.85 µg/mL,–,0.49 µg/mL,0.42 µg/mL,> 20 µg/mL,15 µg/mL,> 20 µg/mL,10 µg/mL,–,–
–,COc1ccc(-c2nc(O)c3ccccc3n2)c(OC)c1,> 20 µg/mL,> 20 µg/mL,> 20 µg/mL,> 20 µg/mL,–,> 20 µg/mL,> 20 µg/mL,> 20 µg/mL,> 20 µg/mL,> 20 µg/mL,–,ED50 [17]: inactive
–,COc1cccc(-c2nc(O)c3cc(OC)c(OC)cc3n2)c1,18 µg/mL,> 20 µg/mL,12 µg/mL,> 20 µg/mL,–,–,> 20 µg/mL,15 µg/mL,> 20 µg/mL,–,–,–
5.6 µM,COc1cccc(C2NC(=O)c3ccccc3N2)c1 (centres undefined),> 20 µg/mL,3 µg/mL,> 20 µg/mL,1.5 µg/mL,1 µg/mL,1.2 µg/mL,> 20 µg/mL,> 20 µg/mL,> 20 µg/mL,3 µg/mL,–,–
